These results are taken from patent US20070275953A1 (priority 2003, published 2007).

For test [1], the target named is T1, HIV-1 reverse transcriptase (Human immunodeficiency virus type 1 group M subtype B, UniProt P04585).
T1 construct: fixed-time assay for HIV-1 reverse transcriptase RNA dependent DNA polymerase activity; RT was purchased from Calbiochem; purchased Calbiochem CAL382129-500
Put plainly: HIV-1 in vitro reverse transcriptase activity (fixed-time RNA dependent DNA polymerase assay). In kind it is biochemical. Particulars: residual RT activity, compound at 10 μM; RT activity without compound set at 100%. As for the experimental part:
For the in vitro inhibition studies of the HIV-1 reverse transcriptase activity, stock solutions of the compounds of the present invention were prepared in dimethyl sulfoxide at a final concentration of 10 mM and kept at room temperature. Nevirapine was purchased from Boehringer Ingelheim. Efavirenz was received from the NIH AIDS Research and Reference Reagent Program.
In vitro inhibition studies used a fixed-time assay for HIV-1 reverse transcriptase RNA dependent DNA polymerase activity. RT was purchased from Calbiochem (ref CAL382129-500). One unit of RT corresponds to the amount of enzyme which incorporates one nanomole of [^3H]TTP in 10 minutes at 37° C.
Assays were performed in a final volume of 50 μl. […] Reaction mixtures were incubated at 37° C. for 10 min. The incorporation rate was determined by a standard trichloroacetic acid precipitation procedure (adapted from Current protocols in molecular biology. Eds Wiley, MGH Harvard medical school) and liquid scintillation counting using a Wallac scintillation counter.
The in vitro activity of the compounds, at a final concentration of 10 μM, on the reverse transcriptase (RT) activity of HIV-1 is derivable from the relative (%) reduction in RT activity. Hereby, the RT activity in the absence of any of the compounds is set at 100%.

Test [2] relates to HIV-1 mutant Cys188RT in P4 cells. Put plainly: Anti-HIV assay on P4 cells, Cys188RT mutant. In kind it is cell-based. An excerpt: (§1) In order to introduce mutation(s) at the level of the pol gene coding for the RT in the pNL4-3 plasmid containing the complete viral genome (Adachi et al., 1986. J. Virol., Vol. 59 p 284-291) we used the “Quick change mutagenesis kit” (Stratagene). The following mutations were separately introduced in pNL4-3: L100I, K103N, V108I, Y181C, Y188C, and the double mutations K103N/V108I. These mutations were chosen because of the resistance that they confer to existing NNRTI. The production procedure of the mutant viral stocks is identical to the one described above.
(§2) Anti-HIV activity and cytotoxicity of the compounds were tested on a P4 cell line. The P4 cell line (Clavel & Charneau, 1994. J. Virol., Vol. 68 p 1179-1185) was provided by Dr. François Clavel (Unité de recherche antivirale de l'hôpital Xavier Bichat Paris: Inserm). The P4 cells were cultured in complete DMEM medium supplemented with 10% fetal bovine serum (FBS), 0.5% of Penicillin/Streptomycin and G418 at 0.5 mg/ml. Exponentially growing cells were trypsinized, centrifuged and split twice weekly at 5.10^4 cells/ml.
(§3) The P4 cells are HIV-infectible Hela-CD4 cells that carry the bacterial lacZ gene under the control of the HIV-1 long terminal repeat (LTR). In this cell line, transcription of the LacZ gene is driven by the HIV-1 LTR. As such, the cytoplasmic accumulation of β-galactosidase is strictly dependent on the presence of the HIV transactivator Tat produced during the intracellular viral replication (Clavel & Charneau, 1994. J. Virol., Vol. 68, p. 1179-1185). In other words, in this system, the expression level of the β-galactosidase gene is proportional to the viral replication.
(§4) Briefly, in the anti-HIV assay 100 Ål of P4 cells were plated in 96-well plate at a concentration of 0.4 10^5 cells/ml and incubated at 37° C., 5% CO2. After 48 h, the medium was removed and 100 Ål of the different drugs dilutions were added to the cells. Four hours after the addition of the drugs all cells were infected with equal amount of cell-free virus, corresponding to 100 ng of HIV p24 antigen. After 48 h of incubation at 37° C., 5% CO2, β-galactosidase activity was measured using chlorophenol red-β-D-galactopyranoside assays.
(§5) The absorbance was measured on a Benchmark™ Microplate Reader (Biorad) (λ=570 nm) and compared with 12 cell control replicates (no virus or drug added) and 12 virus control wells (no drug added). Each assay was performed a minimum of three times. The 50% effective concentration (Ec50) was calculated from each dose response curve using the CurveExpert 1.3 software. As Nevirapine activity corresponds to its published values (10-100 nM), the data are consistent with other measures of viral replication.

Test [3] deals with HIV-1 mutant Cys181RT in P4 cells. Description: Anti-HIV assay on P4 cells, Cys181RT mutant. The test is classed as cell-based.
Source text: as §1, §2, §3, §4, §5

The test system of test [4] is HIV-1 mutant Cys181RT in TZM-bl cells. Put plainly: Anti-HIV assay on TZM-bl cells, Cys181RT mutant. The test is classed as cell-based. The settings on record: read-out: EC50 Cys181RT TZM-bl.
Source text: as §1
(§6) Anti-HIV activity and cytotoxicity of the compounds were tested on the TZM-b1 cell line. The TZM-b1 cell line (Wei et al. 2002. Antimicrob. Agents Chemother. Vol. 46, p 1896-1905) was received from the NIH AIDS Research and Reference Reagent Program. These cells were cultured in complete DMEM medium supplemented with 10% fetal bovine serum (FBS), and 1% Penicillin/Streptomycin. Exponentially growing cells were trypsinized, centrifuged and split twice weekly at 5 10^4 cells/ml.
(§7) The anti-HIV assay with TZM-b1 cells is essentially the same as described above with P4 cells. The main difference between the two cell lines is that the TZM-b1 cells express at their surface both the CD4 and CCR5 proteins, acting as receptor and co-receptor for HIV entry, respectively (Wei et al. 2002. Antimicrob. Agents Chemother. Vol. 46, p 1896-1905). This feature makes the cells very sensitive to infection by the virus. The TMZ-b1 cells were infected with equal amount of cell-free virus, corresponding to 10 ng of HIV p24 antigen. This amount is ten times lower than the amount used to infect the P4 cells.

The subject of test [5] is HIV-1 mutant Ile108RT in TZM-bl cells. Description: Anti-HIV assay on TZM-bl cells, Ile108RT mutant. The test is classed as cell-based. Particulars: read-out: EC50 Ile108RT TZM-bl.
Source text: as §1, §6, §7

Test [6] concerns HIV-1 mutant Asn103RT in P4 cells. Description: Anti-HIV assay on P4 cells, Asn103RT mutant. In kind it is cell-based.
Source text: as §1, §2
The P4 cells are HIV-infectible Hela-CD4 cells that carry the bacterial lacZ gene under the control of the HIV-1 long terminal repeat (LTR). In this cell line, transcription of the LacZ gene is driven by the HIV-1 LTR. […]
Briefly, in the anti-HIV assay 100 Ål of P4 cells were plated in 96-well plate at a concentration of 0.4 10^5 cells/ml and incubated at 37° C., 5% CO2. […] After 48 h of incubation at 37° C., 5% CO2, β-galactosidase activity was measured using chlorophenol red-β-D-galactopyranoside assays.
The absorbance was measured on a Benchmark™ Microplate Reader (Biorad) (λ=570 nm) and compared with 12 cell control replicates (no virus or drug added) and 12 virus control wells (no drug added). […] The 50% effective concentration (Ec50) was calculated from each dose response curve using the CurveExpert 1.3 software. […]

Where [7] appears, read: P4, mutant Cys188RT, read-out: EC50 Cys188RT P4.
Setting [8] is: P4, mutant Cys181RT, read-out: EC50 Cys181RT P4.
The mark [9] stands for this setting: Human immunodeficiency virus 1, read-out: EC50 Cys188RT P4.
The mark [10] stands for this setting: Human immunodeficiency virus 1, read-out: EC50 Cys181RT P4.
[11] abbreviates: Human immunodeficiency virus 1, TZM-bl.
Where [12] appears, read: Human immunodeficiency virus 1, read-out: EC50 Asn103RT P4.

Where two headings read alike, the source gives them in different places.

As for `CCOC(=O)c1c(OC2CC(C)CC(C)C2)c(CC)c(C)[nH]c1=O` (single isomer, unassigned) [Z37inv], the “Relative (%) RT activity in vitro (compound added at 10 μM)” value (shortened to “Relative (%) RT activity in vitro”) in test [1] was determined as 5.5%. The EC50 – broadly, the concentration that produces a half-maximal response – in test [2] (setting [7]) amounted to 10 nM; in test [3] (setting [8]), 1970 nM; in test [4] (TZM-bl, mutant Cys181RT), 2540 nM; in test [5] (TZM-bl, mutant Ile108RT), 1090 nM.

For the compound `O=C1Nc2ccc(Cl)cc2[C@@](C#CC2CC2)(C(F)(F)F)O1` [Efavirenz, reference compound], the EC50 is under 1 nM in test [2] (setting [9]), under 1 nM in test [3] (setting [10]), under 1 nM in test [4] (setting [11]) and under 6 nM in test [5] (setting [11]).

On to `Cc1ccnc2c1NC(=O)c1cccnc1N2C1CC1` [Nevirapine, reference compound], for which, in test [1], the “Relative (%) RT activity in vitro” value stood at 16.7%. For the same compound, the EC50 in test [2] (setting [9]) was found to be 1640 nM; in test [3] (setting [10]), 10000 nM; in test [4] (setting [11]) it was 8300 nM; in test [6] (setting [12]), 1710 nM; in test [5] (setting [11]), 91 nM.

In the case of `CCc1c(C)[nH]c(=O)c(CO)c1OC1CC(C)CC(C)C1` (stereo not drawn) [Z45inv], in test [1], the “Relative (%) RT activity in vitro” value was found to be 12.1%. Further, the EC50 was 8 nM in test [2] (setting [7]); 496 nM in test [3] (setting [8]); 3200 nM in test [4] (TZM-bl, mutant Cys181RT).

As for `CCc1c(C)[nH]c(=O)c([N+](=O)[O-])c1OC1CC(C)CC(C)C1` (stereo not drawn) [Z91inv, 3-nitro-5-ethyl-6-methyl-4-[(3,5-dimethylcyclohexyl)oxy]pyridine-2(1H)-one], the “Relative (%) RT activity in vitro” value in test [1] stood at 0%. Further, the half-maximal effective concentration (EC50) was under 1 nM in test [2] (setting [9]); 46 nM in test [3] (setting [10]); 58 nM in test [4] (setting [11]); 89 nM in test [6] (setting [12]); under 1 nM in test [5] (setting [11]).

In the case of `CCc1c(C)[nH]c(=O)c(CSC(C)=O)c1OC1CC(C)CC(C)C1` (stereo not drawn) [Z114], in test [1], the “Relative (%) RT activity in vitro” value stood at 0%. In addition, the EC50 in test [2] (setting [7]) was 3 nM; in test [3] (setting [8]), 87 nM; in test [4] (TZM-bl, mutant Cys181RT) it was 411 nM; in test [6] (P4, mutant Asn103RT, read-out: EC50 Asn103RT P4), 643 nM; in test [5] (TZM-bl, mutant Ile108RT) it was 12 nM.

As to `CCc1c(C)[nH]c(=O)c(N(C)C)c1OC1CC(C)CC(C)C1` (stereo not drawn) [Z150, 3-(dimethylamino)-5-ethyl-6-methyl-4-[(3,5-dimethylcyclohexyl)oxy]pyridine-2(1H)-one], the “Relative (%) RT activity in vitro” value in test [1] turned out to be 0.9%. Moreover, the EC50 in test [2] (setting [9]) was under 1 nM; in test [3] (setting [10]) it was 61 nM; in test [4] (setting [11]) it was 86 nM; in test [5] (setting [11]) it was 4 nM.

For `CCc1c(C)[nH]c(=O)c(CN=[N+]=[N-])c1OC1CC(C)CC(C)C1` (stereo not drawn) [Z153], the “Relative (%) RT activity in vitro” value in test [1] was determined as 0.7%. Further, the EC50 in test [2] (setting [7]) was under 1 nM; in test [3] (setting [8]), 108 nM; in test [4] (TZM-bl, mutant Cys181RT), 83 nM; in test [5] (TZM-bl, mutant Ile108RT), 1 nM.

Turning to `CCc1c(C)[nH]c(=O)c(C)c1OC1CC(C)CC(C)C1` (stereo not drawn) [Z154], the “Relative (%) RT activity in vitro” value in test [1] is 1.6%. Moreover, the concentration giving a half-maximal response (EC50) in test [2] (setting [7]) was under 1 nM; in test [4] (TZM-bl, mutant Cys181RT), 288 nM; in test [5] (TZM-bl, mutant Ile108RT), 14 nM.
